# Laboratory results published in patent US6949533B2, “6,7-Oxygenated steroids and uses related thereto” (Inflazyme Pharmaceuticals Ltd., priority 1996, dated 2005).
# Read-outs that look alike come from different tables or passages of the source.
# Tests used:
# guinea pig ileum = test: antigen-induced contraction of ileum from sensitized guinea pigs; conditions: Cavia porcellus, read-out: Percentage Inhibition, 30 μM compound, n = 3-4
# Method: The ability of compounds to inhibit allergen-induced contraction of ileum from sensitized animals is indicative of antiallergic activity. Sensitized guinea pig ileum is particularly useful in measuring the immediate allergic response.
# The guinea pig ileum has been used to evaluate the ability of compounds to inhibit allergan-induced histamine and mediator release causing smooth muscle contraction. Guinea pigs were sensitized by an intraperitoneal injection of 100 mg ovalbumin and an intramuscular injection of 50 mg ovalbumin on day 0, followed by a second intramuscular injection of 50 mg ovalbumin on day 1. […] Segments of ileum were prepared and suspended, with muscle contractions being measured in the longitudinal plane, in Tyrode's buffer at 37° C. and aerated with 5% CO2 in O2. Tissues were suspended under a resting tension of 2 grams and isometric contractions were measured using force-displacement transducers coupled to a polygraph. Tissues were stimulated with 3 μM histamine 3 times to ensure reproducible contractions were obtained. Tissues were then incubated with each compound (30 μM) or 0.15% dimethylsulphoxide (DMSO) as a control, for 20 min, after which time the tissues were challenged with 100 μg/ml ovalbumin. The magnitude of the contraction induced by OA in the presence of each compound was expressed as a percentage of the contraction obtained to 3 μM histamine. The protective effects of the various compounds on OA-induced contraction of guinea pig ileum from sensitized animals are summarized in Table 4.
# rabbit platelets = test: PAF-induced aggregation of rabbit platelets; format: cell-based; conditions: Oryctolagus cuniculus, Platelet, read-out: % Inhibition at 80 μM
# Excerpt: Within the present invention, it was discovered that the polyhydroxylated steroids as well as intermediates described in previous sections inhibited the aggregation of platelets caused by platelet activating factor (PAF). PAF is a local mediator of thrombosis and prevention of the formation of blood clots has direct implication in the treatment of thrombosis and associated cardiovascular diseases. The assay system used to evaluate the ability of compounds to inhibit the aggregation of platelets in response to exogenous stimuli is indicative of anti-thrombotic or thrombolytic activity.
# Platelets were isolated from rabbit blood and prepared at a density of 2.4×10^8 cells/ml in Tyrodes buffer (pH 7.2) containing Ca^2+. Platelets were incubated with each compound for 5 min at 37° C. prior to stimulation. Platelets were stimulated with 1 nM platelet activating factor (PAF; EC75) in the presence of each of the compounds and aggregation was monitored for 5 min. Compounds were solubilized in dimethylsulfoxide (DMSO) and aggregation was measured as a percentage of the response to 1 nM PAF obtained in the presence of the appropriate concentration of DMSO. The degree of inhibition caused by each sample was calculated using the control response in the presence of DMSO equal to 100%.
# [1] = test system: passively sensitized rat mast cells (RBL-2H3); test: antigen-induced release of hexosaminidase from RBL-2H3 cells; format: cell-based; conditions: for inhibition at 25 µM: Rattus norvegicus
# Method: (§1) The anti-allergic effects of various polyhydroxylated steroids of the present invention were evaluated by measuring their effect on antigen-induced secretion of hexosaminidase from a passively sensitized rat mast cell line (RBL-2H3) and a murine mast cell line (MC/9). The ability of agents to inhibit the release of mast cell granule contents, e.g., histamine and hexosaminidase, is indicative of anti-allergy and/or anti-asthma activity.
# (§2) Hexosaminidase is released from the mast cell granule along with histamine and other mediators during antigen challenge. RBL-2H3 and MC/9 cells were grown in culture and passively sensitized to dinitrophenol (DNP) using anti-human-DNP (IgE). Cells were incubated with each compound (25 μM) for 1 hour at 37° C. and then stimulated with 0.1 mg/ml DNP-HSA (antigen) for 15 min. Aliquots of the supernatant were removed and used to measure the amount of hexosaminidase released during challenge with the antigen. The amount of hexosaminidase present in the supernatant was determined calorimetrically by monitoring the enzymatic metabolism of p-nitrophenyl-N-acetyl-β-D-glucosaminide (p-NAG) over a period of 1 hour at 410 nm. The effect of each compound was determined as a percentage of the antigen-induced response (minus background release) obtained in the presence of DMSO alone, as set forth in Tables 2 and 3. These values were used to determine the degrees of inhibition of antigen-induced hexosaminidase release from the cells.
# isolated trachea = test system: isolated trachea; set-up: species or system guinea pig; conditions: compound 20 μM, study 1
# Method: The effects of a number of the compounds described herein on allergen-induced bronchoconstriction were evaluated for anti-asthma activity. The ability of a compound to inhibit allergen-induced decreases in lung function in sensitized guinea pigs in response to antigen-challenge is indicative of anti-asthma activity. In particular, the model system is useful in the evaluation of the potential effects of a compound in the treatment of the early asthmatic reaction (EAR) when severe bronchoconstriction occurs.
# Guinea pigs were exposed to a nebulized solution of 1% ovalbumin (OA) in saline for 15 min. […] Tracheal rings were prepared and bathed in Krebs-Henseleit solution at 37° C. and aerated with 5% CO2 in […]. Tissues were suspended under a resting tension of 2 g and isometric contractions were measured using force-displacement transducers coupled to a polygraph. Tissues were incubated with each compound or 0.1% dimethylsulfoxide (as a control) for 20 min, after which increasing concentrations of OA (0.001-100 μg/ml) were added to the tissue. After the final concentration of OA was added and the response was recorded, the tissues were stimulated with 100 μM methacholine which caused maximum contraction of the trachea. The magnitude of the contraction induced by OA in the presence of each compound was expressed as a percentage of the maximum contraction obtained using methacholine (100 μM).
# mouse mast cells (MC/9) = test: antigen-induced release of hexosaminidase from MC/9 cells; format: cell-based; conditions: for inhibition at 25 µM: Mus musculus, MC9, 25 μM compound, read-out: Percentage Inhibition (mean) MC/9 cells
# Method: as §1, §2
# NF-κB = NF-κB gel shift binding assay in TPA-stimulated RBL-2H3 cells; format: cell-based; conditions: Rattus norvegicus, compound 1 μM, 2 hours preincubation, read-out: Percent Inhibition of Response to TPA (0.1 μM)
# sensitized guinea pigs = test: allergen-induced changes in lung resistance and compliance in vivo; set-up: species or system guinea pig; conditions: 5 mg/kg/day for 4 days p.o.
# Method: Female Cam Hartley guinea pigs (350-400 g) are sensitized to ovalbumin by exposure of the guinea pigs to a nebulized solution of 1% ovalbumin in saline for 15 minutes. After 10-12 days, the animals are found to be acutely sensitized to the allergen (ovalbumin). Animals are treated by oral gavage, under light halothane anesthesia, with 300 μl polyethyleneglycol-200 (PEG) or 5 mg/Kg of test compound in 300 μl of PEG. Animals are treated once daily for 4 days with the final dose administered 2 hours prior to allergen challenge. Alternatively, compounds were delivered by inhalation, using a Hudson nebulizer driven by 6 psi oxygen, providing a single dose of 50 μg/Kg 20 min prior to challenge.
# An animal is anaesthetized using ketamine ([…]; i.p.) and xylazine (10 mg/Kg; i.p.) and 1% halothane during the surgical procedure. A tracheostomy is performed and a water-filled esophageal cannula is inserted prior to positioning the animal in a body plethysmograph. The tracheal cannula is attached to a fixed tracheal cannula in the plethysmograph. Cardiac function is monitored using electrocardiography. The animal is paralyzed using pancuronium bromide (0.8 mg/Kg; i.m.) and ventilated with 3 ml tidal breaths using a Harvard small animal ventilator, at a frequency of 60 breaths per minute. Pulmonary resistance and dynamic lung compliance data are obtained from volume, flow and transpulmonary pressure signals using multipoint analysis.
# Pulmonary function is continually monitored throughout the experiment and measurements of lung resistance and lung compliance are made at various time-points (e.g., 0, 1, 2, 3, 4, 5, 10, 20 and 30 min) following antigen challenge. Data is collected on a computer-linked physiological measurement system using DIREC Physiological recording software and analyzed using ANADAT software designed for lung mechanics measurements. This software was obtained from RHT-InfoDat Inc., Montreal, Quebec, Canada.
# Once baseline resistance and compliance measurements are obtained, the animal is challenged with 6 breaths of saline. After 10 minutes, during which time no alterations in lung function should occur, the animal is challenged with 6 breaths of 2 or 3% ovalbumin in saline (as the antigen stimulus). Saline and antigen are delivered in each breath using a Hudson nebulizer.
# [2] = RBL-2H3, read-out: Percentage Inhibition (mean) RBL-2H3 Cells
# [3] = RBL-2H3, 25 μM compound, antigen-induced hexosaminidase release, read-out: Percentage Inhibition (mean) RBL-2H3 Cells
smiles,measurement,setting,value
C[C@]12CCC(=O)C=C1[C@@H](O)[C@H](O)C1C2CC[C@]2(C)C(=O)CCC12 (stereo partly drawn) [Compound 7],inhibition at 30 µM,guinea pig ileum,54%
same,inhibition at 80 µM,rabbit platelets,12.3%
same,inhibition at 25 µM,[1]; [2],21.7%
CC1(C)O[C@@H]2C3=CC(=O)CC[C@]3(C)C3CC[C@]4(C)C(=O)CCC4C3[C@H]2O1 (stereo partly drawn) [Compound 8],inhibition at 80 µM,"rabbit platelets; 80 μM compound, 5 min preincubation, PAF-stimulated rabbit platelets (title: 0.1 nM PAF)",11.6%
CC1(C)O[C@@H]2C3C(CC[C@@]4(C)C3CC[C@@H]4O[Si](C)(C)C(C)(C)C)[C@@]3(C)CC[C@H](O)[C@@H](O)C3[C@H]2O1 (stereo partly drawn) [Compound 236],inhibition at 80 µM,rabbit platelets,100%
same,percentage contraction compared to 100 μM methacholine,isolated trachea; OA 0.01 μg/ml,5.6%
same,percentage contraction compared to 100 μM methacholine,isolated trachea; OA 0.03 μg/ml,5.6%
same,percentage contraction compared to 100 μM methacholine,isolated trachea; OA 10.0 μg/ml,39%
same,inhibition at 25 µM,[1]; [2],31%
C/C=C1/CCC2C3C(CC[C@]12C)[C@@]1(C)CC[C@H](O)CC1[C@@H](O)[C@@H]3O (stereo partly drawn) [Compound 333],inhibition at 30 µM,guinea pig ileum,63%
same,inhibition at 25 µM,mouse mast cells (MC/9),71%
same,inhibition at 1 µM,NF-κB,34%
same,inhibition at 25 µM,[1]; [3],69%
CC[C@H]1CCC2C3C(CC[C@@]21C)[C@@]1(C)CC[C@@H](O)CC1[C@@H](O)[C@@H]3O (stereo partly drawn) [Compound 339],inhibition at 30 µM,guinea pig ileum,40.6%
same,Percentage Inhibition (mean) MC/9 cells,"mouse mast cells (MC/9); 25 μM compound, 25 µM",55%
same,inhibition at 25 µM,mouse mast cells (MC/9),67%
same,Lung Compliance,sensitized guinea pigs; 1 min after challenge,0.172 ± 0.027 ml/cm H2O
same,Lung Resistance,sensitized guinea pigs; 1 min after challenge,0.326 ± 0.041 cm H2O/ml/sec
same,Lung Compliance,sensitized guinea pigs; 2 min after challenge,0.088 ± 0.018 ml/cm H2O
same,Lung Resistance,sensitized guinea pigs; 2 min after challenge,0.522 ± 0.187 cm H2O/ml/sec
same,Lung Compliance,sensitized guinea pigs; 3 min after challenge,0.060 ± 0.017 ml/cm H2O
same,Lung Resistance,sensitized guinea pigs; 3 min after challenge,1.102 ± 0.047 cm H2O/ml/sec
same,Lung Compliance,sensitized guinea pigs; 4 min after challenge,0.050 ± 0.013 ml/cm H2O
same,Lung Resistance,sensitized guinea pigs; 4 min after challenge,0.996 ± 0.380 cm H2O/ml/sec
same,Lung Compliance,sensitized guinea pigs; 5 min after challenge,0.051 ± 0.011 ml/cm H2O
same,Lung Resistance,sensitized guinea pigs; 5 min after challenge,1.014 ± 0.413 cm H2O/ml/sec
same,Lung Compliance,sensitized guinea pigs; 10 min after challenge,0.084 ± 0.012 ml/cm H2O
same,Lung Resistance,sensitized guinea pigs; 10 min after challenge,0.440 ± 0.099 cm H2O/ml/sec
same,Lung Compliance,sensitized guinea pigs; 20 min after challenge,0.123 ± 0.015 ml/cm H2O
same,Lung Resistance,sensitized guinea pigs; 20 min after challenge,0.296 ± 0.031 cm H2O/ml/sec
same,Lung Compliance,sensitized guinea pigs; 30 min after challenge,0.150 ± 0.012 ml/cm H2O
same,Lung Resistance,sensitized guinea pigs; 30 min after challenge,0.291 ± 0.037 cm H2O/ml/sec
same,Lung Compliance,sensitized guinea pigs; Baseline,0.463 ± 0.026 ml/cm H2O
same,Lung Resistance,sensitized guinea pigs; Baseline,0.249 ± 0.017 cm H2O/ml/sec
same,Lung Compliance,sensitized guinea pigs; OA/10 s,0.442 ± 0.025 ml/cm H2O
same,Lung Resistance,sensitized guinea pigs; OA/10 s,0.239 ± 0.013 cm H2O/ml/sec
same,inhibition at 1 µM,NF-κB,65%
same,Percentage Inhibition (mean) RBL-2H3 Cells,"[1]; 25 μM compound, antigen-induced hexosaminidase release, 25 µM",76%
same,inhibition at 25 µM,[1]; [3],79%
